# Data from US20220193120A1, “MOLECULAR HYDROGEN-CONTAINING COMPOSITION FOR MAINTAINING LUNG FUNCTION IN HUMAN LUNG CANCER AND/OR IMPROVING REDUCTION IN LUNG FUNCTION ATTRIBUTED TO HUMAN LUNG CANCER” (MiZ Company Limited, priority 2020, published 2022).
# Read-outs that look alike come from different tables or passages of the source.
# How the values were obtained:
# [1] = test system: lung function of subject having lung cancer
# Procedure: On Oct. 21, 2020, inhalation of the hydrogen gas was started using a hydrogen gas generator (Jobs-α, hydrogen concentration: about 4% to 5%, the amount of 100% hydrogen to be generated: 200 ml/min) manufactured by MiZ Company Limited (Ofuna, Kamakura). […]
# [2] = room temperature, normal pressure; also printed as 1.6 mg/L; cited from earlier work
# [3] = test system: Lewis Lung Carcinoma; settings: inhalation of low concentration (3.5%) hydrogen; Japanese Patent No. 6781485, Example 1; cited from earlier work
# [4] = test system: lung function of subject having lung cancer; settings: one month from start of inhalation, hydrogen about 1% to 2%, 3 to 6 hours per day
# Procedure: A person had surgery of colorectal cancer in 2018. Thereafter, the person was periodically examined for follow-up. […] From the day of examination, the person was treated with hydrogen gas inhalation for 3 to 6 hours per day using a hydrogen gas generator (Jobs-mini, hydrogen concentration: about 1% to 2%, the amount of 100% hydrogen to be generated: 30 ml/min).
# [5] = Week 2, hydrogen about 4% to 5%, at least 3 hours per day
# [6] = Week 3, hydrogen about 4% to 5%, at least 3 hours per day
smiles,measurement,setting,value
"[HH] [hydrogen gas, molecular hydrogen]",tolerability of hydrogen gas inhalation,"[1]; Week 1, inhalation 5 hours per day, hydrogen concentration about 4% to 5%, person stage IV lung cancer",inhaled comfortably with no discomfort
same,amount of oxygen needed for oxygen inhalation,[1]; [5],reduced
same,breathing,[1]; [5],became easier
same,lung X-ray image change,[1]; [5],any significant change was not observed
same,state of breathing,[1]; [5],became better
same,amount of oxygen needed for oxygen inhalation,[1]; [6],reduced compared to that in the previous week
same,complicating inflammation reaction such as colitis,[1]; [6],improved
same,lung ventilatory function (doctors' determination from CT image and oxygen needed),[1]; [6],improved compared to that one month ago
same,shadows derived from pneumonia in chest CT image,[1]; [6],completely disappeared
same,concentration of hydrogen dissolved in water,[2],approximately 1.6 ppm
same,metastasis,[3],suppressed
same,breathing function,[4],normal values again
same,lung capacity,[4],normal values again
same,tumor markers,[4],normal numeric values again
same,lung cancer at pre-surgery examination,[4]; person,disappeared
